Measurements published in US11459546B2, “Method for producing somatic cell, somatic cell, and composition” (Kyoto Prefectural Public University Corporation, priority 2016, dated 2022).

System: Human skin fibroblasts
Assay: Direct transformation from human fibroblast to brown adipocyte (Example B)
Type: cell-based
Parameters: key: the mark “++++” indicates that almost all of the fibroblasts were transformed into brown adipocytes; +++: the larger the number of the marks “+” is, the higher the transformation efficiency is; ++: the larger the number of the marks “+” is, the higher the transformation efficiency is; the larger the number of the marks “+” is, the higher the transformation efficiency is; The mark “−” indicates that the fibroblasts were not transformed into brown adipocytes
Settings: fibroblast of subject; judged from UCP1 immunostaining and cell states, FIG. 4 to FIG. 8
Experimental: Human skin fibroblasts were purchased from DS Pharma Biomedical Co., Ltd. Cell information is described in the following table.
About 1.5×10^5 cells were seeded on a 35 mm dish containing a high-glucose DMEM medium (11995-065, Gibco, MA, USA) to which 10% fetal bovine serum (FBS) (HyClone, Utah, USA) and penicillin/streptomycin (Gibco) were added.
After each of the human fibroblasts reached 80-90% confluence, the medium was changed to start direct transformation into the brown adipocyte. The adipocyte medium for use was prepared by adding an additive reagent containing ascorbic acid, biotin, pantothenic acid, triiodothyronine, octanoic acid, insulin, dexamethasone, IBLMX (3-isobutyl-1-methylxanthine), FBS and penicillin/streptomycin (MK425, Takara Bio Inc.) to a high-glucose DMEM medium (043-30085, Wako Pure Chemical Industries, Ltd.). […]
Immunocytochemistry was performed in accordance with a previous report (Dai P, et al. J Clin Biochem Nutr. 2015; 56 (3): 166-70). […] All images were acquired using a fluorescence microscope (Axio Vert. A1, Carl Zeiss, Oberkochen, Germany). […]
The efficiencies of transformation into the adipocyte-like cells with various combinations of the compounds were evaluated from the results shown in FIG. 4 to FIG. 8, and the results are shown in the following table. […]

CN(CCOc1ccc(CC2SC(=O)NC2=O)cc1)c1ccccn1 (stereo not shown) [Ro only, Rosiglitazone]
Efficiency (transformation into the adipocyte-like cells): −
